# Assay results from patent US11634396B2 (priority 2021, dated 2023).
# Target: human mOR (Homo sapiens (Human), UniProt P35372)
# Assay: cell-based
# Settings: not given
# Protocol: CHO Tag-lite human mOR stable cell line from Cisbio (NCBI accession number: NM_000914.3, Bedford, Mass.) were seeded and grown to approximately 80% confluence in Ham F-12 with 10% FBS, 50 U/ml penicillin, 50 μg/ml streptomycin, 2 mM Hepes, and 1 mg/ml geneticin (Invitrogen, Carlsbad, Calif.). Cells were then harvested using accutase (Corning. Coming, N.Y.), centrifuged at 1300 RPM for 5 min, and plated at 5000 cells per 5 μL per well in a 5× dilution of stimulation buffer consisting of the HTRF cAMP Gi kit, water and IBMX at 0.5 mM (Cisbio, Bedford, Mass.) in white HTRF low volume 384 well plates (Cisbio, Bedford, Mass.). Plates were then incubated at 37° C. in 5% CO2 for 10 minutes. For the agonist assay, forskolin was added to a final concentration of 4 μM. […] Test compounds were dissolved in DMSO and water, and then serially diluted to working concentrations such that the concentration of DMSO was less than 0.1%. Diluted test compounds were added at 2.5 μL per well, and plates were incubated at 37° C., and 5% CO2 for 15 minutes, and then at room temperature for 15 minutes. Next 5 μl/well of cAMP Eu-cryptate and 5 μl/well of anti-cAMP-d2 (both diluted 1:20 in lysis buffer) were added, and plates were incubated at room temperature for 1 hour. Following incubation, plates were read in a Synergy Neo2 multi-mode reader (Biotek, Winooski, Vt.). […] For the agonist assay, data was normalized using the maximal DAMGO response. Measurements were performed in triplicate and the dose response was fit using nonlinear regression.
# human mOR, sequence (P35372 whole entry): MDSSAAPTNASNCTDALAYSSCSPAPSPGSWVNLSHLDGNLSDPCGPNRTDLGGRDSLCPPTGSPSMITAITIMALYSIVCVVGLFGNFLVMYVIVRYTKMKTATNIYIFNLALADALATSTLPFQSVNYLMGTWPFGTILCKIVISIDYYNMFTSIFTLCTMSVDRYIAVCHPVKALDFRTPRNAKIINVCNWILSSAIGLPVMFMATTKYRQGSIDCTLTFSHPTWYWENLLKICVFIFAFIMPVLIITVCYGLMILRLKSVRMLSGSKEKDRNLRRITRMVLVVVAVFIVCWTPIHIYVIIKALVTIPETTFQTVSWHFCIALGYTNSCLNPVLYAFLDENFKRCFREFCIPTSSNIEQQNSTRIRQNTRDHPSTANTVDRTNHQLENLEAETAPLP
row,Structure (SMILES),IC50
1,"Cc1ncc([C@@H](CC(=O)NC[C@H](Cc2ccc(C(N)=O)c(F)c2)N(C)C)C2CC2)cn1 [Compound 67, 4-((S)-3-((S)-3-cyclopropyl-3-(2-methylpyrimidin-5-yl)propanamido)-2-(dimethylamino)propyl)-2-fluorobenzamide]",> 3 µM
2,"CN(C)[C@H](CNC(=O)CC(c1ccc(Cl)cn1)C1(C(F)(F)F)CC1)Cc1ccc(C(N)=O)c(F)c1 (stereo partly drawn) [Compound 69, 4-((2S)-3-(3-(5-chloropyridin-2-yl)-3-(1-(trifluoromethyl)cyclopropyl)propanamido)-2-(dimethylamino)propyl)-2-fluorobenzamide]",< 0.3 µM
3,"CN(C)[C@H](CNC(=O)CC(c1ncccn1)C1(C(F)(F)F)CC1)Cc1ccc(C(N)=O)c(F)c1 (stereo partly drawn) [Compound 71, 4-[(2S)-2-(dimethylamino)-3-[3-(pyrimidin-2-yl)-3-[1-(trifluoromethyl)cyclopropyl]propanamido]propyl]-2-fluorobenzamide]",< 0.3 µM
4,"CC(C)[C@H](CC(=O)NC[C@H](Cc1ccc(C(N)=O)c(F)c1)N(C)C)c1cccnc1 [Compound 78, 4-[(2S)-2-(dimethylamino)-3-[(3S)-4-methyl-3-(pyridin-3-yl)pentanamido]propyl]-2-fluorobenzamide]",> 3 µM
5,"Cc1ncc([C@@H](CC(=O)NC[C@H](Cc2ccc(C(N)=O)cc2)N(C)C)C2(C(F)(F)F)CC2)cn1 [Compound 79, 4-((S)-2-(dimethylamino)-3-((R)-3-(2-methylpyrimidin-5-yl)-3-(1-(trifluoromethyl)cyclopropyl)propanamido)propyl)benzamide]",< 0.3 µM
6,"CN[C@H](CNC(=O)C[C@@H](c1ccccc1)C1(C(F)(F)F)CC1)Cc1ccc(C(N)=O)cc1 [Compound 82, 4-((S)-2-(methylamino)-3-((S)-3-phenyl-3-(1-(trifluoromethyl)cyclopropyl)propanamido)propyl)benzamide]",> 3 µM
7,"CNC(=O)c1cc(F)c(C[C@@H](CNC(=O)C[C@H](c2cnc(C)nc2)C2(C(F)(F)F)CC2)N(C)C)c(F)c1 [Compound 105, 4-((S)-2-(dimethylamino)-3-((R)-3-(2-methylpyrimidin-5-yl)-3-(1-(trifluoromethyl)cyclopropyl)propanamido)propyl)-3,5-difluoro-N-methylbenzamide]",0.3 to 3 µM
8,"CNC(=O)c1ccc(C[C@@H](CNC(=O)C[C@H](c2ccc(Cl)cc2)C2(C(F)(F)F)CC2)N(C)C)cc1F [Compound 107, 4-((S)-3-((R)-3-(4-chlorophenyl)-3-(1-(trifluoromethyl)cyclopropyl)propanamido)-2-(dimethylamino)propyl)-2-fluoro-N-methylbenzamide]",< 0.3 µM
9,"CNC(=O)c1ccc(C[C@@H](CNC(=O)CC(c2ncc(Cl)cn2)C2(C(F)(F)F)CC2)N(C)C)c(Cl)c1F (stereo partly drawn) [Compound 112, 3-chloro-4-((2S)-3-(3-(5-chloropyrimidin-2-yl)-3-(1-(trifluoromethyl)cyclopropyl)propanamido)-2-(dimethylamino)propyl)-2-fluoro-N-methylbenzamide]",> 3 µM
10,"CNC(=O)c1ccc(C[C@@H](CNC(=O)C[C@H](c2ccc(C)nc2)C2(C(F)(F)F)CC2)N(C)C)c(Cl)c1 [Compound 113, 3-chloro-4-((S)-2-(dimethylamino)-3-((R)-3-(6-methylpyridin-3-yl)-3-(1-(trifluoromethyl)cyclopropyl)propanamido)propyl)-N-methylbenzamide]",< 0.3 µM
11,"CNC(=O)c1ccc(C[C@@H](CNC(=O)C[C@H](c2cncc(Cl)c2)C2(C(F)(F)F)CC2)N(C)C)c(Cl)c1 [Compound 114, 3-chloro-4-((S)-3-((R)-3-(5-chloropyridin-3-yl)-3-(1-(trifluoromethyl)cyclopropyl)propanamido)-2-(dimethylamino)propyl)-N-methylbenzamide]",< 0.3 µM
12,CNC(=O)c1ccc(C[C@@H](CNC(=O)CC(c2cncc(F)c2)C2(C(F)(F)F)CC2)N(C)C)c(Cl)c1 (stereo partly shown) [Compound 116],< 0.3 µM
13,"CNC(=O)c1ccc(C[C@@H](CNC(=O)CC(c2cncc(OC)c2)C2(C(F)(F)F)CC2)N(C)C)c(Cl)c1 (stereo partly drawn) [Compound 117, 3-chloro-4-((2S)-2-(dimethylamino)-3-(3-(5-methoxypyridin-3-yl)-3-(1-(trifluoromethyl)cyclopropyl)propanamido)propyl)-N-methylbenzamide]",> 3 µM
14,"CNC(=O)c1ccc(C[C@@H](CNC(=O)CC(c2cc(C)ccn2)C2(C(F)(F)F)CC2)N(C)C)c(Cl)c1 (stereo partly drawn) [Compound 118, 3-chloro-4-((2S)-2-(dimethylamino)-3-(3-(4-methylpyridin-2-yl)-3-(1-(trifluoromethyl)cyclopropyl)propanamido)propyl)-N-methylbenzamide]",> 3 µM
15,"CNC(=O)c1ccc(C[C@@H](CNC(=O)CC(c2cccnc2)C2(C(F)(F)F)CC2)N(C)C)c(Cl)c1 (stereo partly drawn) [Compound 119, 3-chloro-4-((2S)-2-(dimethylamino)-3-(3-(pyridin-3-yl)-3-(1-(trifluoromethyl)cyclopropyl)propanamido)propyl)-N-methylbenzamide]",< 0.3 µM

# Same assay, conditions: CHO Tag-lite human mOR stable cell line; forskolin 4 μM and DAMGO at EC90; read-out: mOR cAMP Antagonist Assay IC50
row,Structure (SMILES),IC50
1,"CN(C)[C@H](CNC(=O)C[C@@H](CC1CC1)c1cncnc1)Cc1ccc(C(N)=O)c(F)c1 [Compound 64, 4-((S)-3-((R)-4-cyclopropyl-3-(pyrimidin-5-yl)butanamido)-2-(dimethylamino)propyl)-2-fluorobenzamide]",< 0.3 µM
2,"CN(C)[C@H](CNC(=O)CC(c1ccncc1)C1(C(F)(F)F)CC1)Cc1ccc(C(N)=O)c(F)c1 (stereo partly drawn) [Compound 70, 4-[(2S)-2-(dimethylamino)-3-[3-(pyridin-4-yl)-3-[1-(trifluoromethyl)cyclopropyl]propanamido]propyl]-2-fluorobenzamide]",> 3 µM
3,"CNC(=O)c1cc(C)c(C[C@@H](CNC(=O)C[C@H](c2ccc(Cl)cc2)C2(C(F)(F)F)CC2)N(C)C)c(C)c1 [Compound 106, 4-((S)-3-((R)-3-(4-chlorophenyl)-3-(1-(trifluoromethyl)cyclopropyl)propanamido)-2-(dimethylamino)propyl)-3,5-trimethylbenzamide]",> 3 µM
4,"CNC(=O)c1cc(C)c(C[C@@H](CNC(=O)C[C@@H](CC(C)C)c2ccccn2)N(C)C)c(C)c1 [Compound 108, 4-((S)-2-(dimethylamino)-3-((R)-5-methyl-3-(pyridin-2-yl)hexanamido)propyl)-N,3,5-trimethylbenzamide]",> 3 µM
5,"CNC(=O)c1ccc(C[C@@H](CNC(=O)C[C@@H](c2ccncc2)C2(C(F)(F)F)CC2)N(C)C)c(Cl)c1F [Compound 110, 3-chloro-4-((S)-2-(dimethylamino)-3-((S)-3-(pyridin-4-yl)-3-(1-(trifluoromethyl)cyclopropyl)propanamido)propyl)-2-fluoro-N-methylbenzamide]",> 3 µM

# Same assay, conditions: read-out: mOR cAMP Antagonist Assay IC50
row,Structure (SMILES),IC50
1,"CN(C)[C@H](CNC(=O)C[C@H](c1ccncc1)C1(C(F)(F)F)CC1)Cc1ccc2[nH]c(=O)ccc2c1 [Compound 103, (R)-N-((S)-2-(dimethylamino)-3-(2-oxo-1,2-dihydroquinolin-6-yl)propyl)-3-(pyridin-4-yl)-3-(1-(trifluoromethyl)cyclopropyl) propanamide]",> 3 µM
2,"CNC(=O)c1ccc(C[C@@H](CNC(=O)CC(c2ccc(OC)nc2)C2(C(F)(F)F)CC2)N(C)C)c(Cl)c1 (stereo partly drawn) [Compound 115, 3-chloro-4-((2S)-2-(dimethylamino)-3-(3-(6-methoxypyridin-3-yl)-3-(1-(trifluoromethyl)cyclopropyl)propanamido)propyl)-N-methylbenzamide]",0.3 to 3 µM
